Earlier results as cited in patent US12569487B2, “Treatment of hidradenitis with jak inhibitors” (PFIZER INC., priority 2019, dated 2026).
Read-outs that look alike come from different tables or passages of the source.

System: patients with moderate to severe HS
Settings: for Clinical response rate (hidradenitis suppurativa clinical response, HiSCR): adalimumab weekly

adalimumab
Clinical response rate (hidradenitis suppurativa clinical response, HiSCR) (PIONEER I, Week 12, placebo 26.0%, P=0.003, oral antibiotics stopped at least 28 days before baseline): 41.8%
Clinical response rate (hidradenitis suppurativa clinical response, HiSCR) (PIONEER II, Week 12, placebo 27.6%, P<0.001, stable tetracycline-class antibiotics allowed): 58.9%
Rank-ordered secondary outcomes (lesions, pain, modified Sartorius score) versus placebo (Week 12, in PIONEER II only): significantly greater improvement
Patients with moderate to severe HS who did not respond to treatment (summary of the PIONEER trials): ~40%
